According to patent publication EP1351565B1, “CHEMICAL INHIBITORS OF MISMATCH REPAIR” (Morphotek, Inc., priority 2001, dated 2002):

Assays:
[1] = test system: immortalized human breast epithelial cells; conditions: cited from earlier work
MMR activity = conditions: in vitro assays; cited from earlier work
[2] = at high concentrations; cited from earlier work
human HEK293 cells [3] = assay: Toxicity in HEK293 cells; type: cell-based; conditions: 250 µM, 293 cells
Arabidopsis thaliana [4] = assay: New phenotypes in offspring of chemically treated Arabidopsis plants; type: in vivo
Protocol: Next, 50 seeds were plated in two 150mm dishes containing 2mM DMA, 250 µM EMS or no drug. Seeds were grown for 10 days and then 10 plants from each plate were transferred to soil. All plants appeared to be similar in color and height. Plants were grown at room temperature with daily cycles of 18 hr light and 6 hr dark. After 45 days seeds are harvested from siliques and stored in a desiccator at 4°C for 72 hours. Seeds are then sterilized and 100 seeds from each plant is sown directly into water-saturated soil and grown at room temperature with daily cycles of 18 hr light and 6 hr dark. […] These 7 altered plants were light green in color and appeared to grow slower. […] DMA-exposed plants produced offspring that were yellow in appearance in contrast to dark green, which is always found in wild-type plants. In addition, the yellow plants were also shorter. After 30 days, most wild-type plants produced flowers and siliques, while the 7 mutants just began flowering. After 45 days, control plants were harvested while mutant plants were harvested 10 to 15 days later.

human HEK293 cells [5] = assay: Microsatellite instability of endogenous BAT26 marker in 293 cells; type: cell-based; conditions: 250 µM DMA
Protocol: Briefly, […] were grown in control medium or 250 µM DMA, a concentration that is found to be non-toxic, for 14 to 17 days. Cells are then harvested and genomic DNA isolated using the salting out method (Nicolaides, N.C. et al. (1991) Mol. Cell. Biol. 11 :6166-6176.).
Various amounts of test DNAs from HCT116 (a human colon epithelial cell line) and 293 were first used to determine the sensitivity of our microsatellite test. The BAT26 alleles are known to be heterogeneous between these two cell lines and the products migrate at different molecular weights (Nicolaides personal observation). DNAs were diluted by limiting dilution to determine the level of sensitivity of the assay. DNAs were PCR amplified using the BAT26F: 5'-[…]-3' (SEQ ID NO:43) and the BAT26R: 5'-[…]-3' (SEQ ID NO:44) primers in buffers as described (Nicolaides, N.C. et al. (1995) Genomics 30:195-206). Briefly 1 pg to 100 ngs of DNA were amplified using the following conditions: 94°C for 30 sec, 58°C for 30 sec, 72°C for 30 sec for 30 cycles. […]
To measure for microsatellite stability in 293 cells grown with or without DMA, 0.1 ngs of DNA from DMA-treated or control 293 cells were amplified using the reaction conditions above. […] Fifty bacterial colonies were analyzed for BAT26 structure by directly adding an aliquot of live bacteria to the PCR mix. […]

Arabidopsis thaliana [6] = assay: Toxicity curve of DMA and EMS on Arabidopsis seeds (root and shoot formation); type: in vivo
Protocol: Briefly, AT seeds were sterilized with straight commercial bleach and 100 seeds were plated in 100mm Murashige and Skoog (MS) phytagar (Life Technology) plates with increasing amounts of DMA (ranging from 100µm to 50mM). A similar amount of seeds were plated on MS phytagar only or in MS phytagar with increasing amounts of EMS (100µM to 50mM), a mutagen commonly used to mutate AT seeds (McCallum, C.M.et al. (2000) Nat. Biotechnol.18:455-457). Plates were grown in a temperature-controlled, fluorescent-lighted humidifier (Percival Growth Chamber) for 10 days. After 10 days, seeds were counted to determine toxicity levels for each compound. […] Plantlets that were identical to untreated seeds were scored healthy. Seeds with stunted root or shoot formation were scored intermediate (inter). Non-germinated seeds were scored dead. Table 2: Toxicity curve of DMA and EMS on Arabidopsis (per […])

[7] = rat-liver microsomal preparations; cited from earlier work
[8] = test system: Pichia yeast containing a pGUS-OF reporter system; assay: Pichia yeast pGUS-OF reporter assay for MMR blockade; type: cell-based; conditions: 300 µM, 48 hours
Protocol: Briefly, the GUS-OF and GUS-IF gene, which contains a polyA repeat at the N-terminus of the protein was subcloned from the pCR=IF-GUS and pCR-OF-GUS plasmids into the EcoRI site of the pGP vector, which is a consitutively expressed yeast vector containing a zeocin resistance gene as selectable marker. pGP-GUS-IF and pGP-GUS-OF vectors were electroporated into competent Pichia cells using standard methods known by those skilled in the art. Cells were plated on YPD agar (10g/L yeast extract; 20 g/L peptone; 2% glucose; 1.5% bactoagar) plates containing 100 µg/ml zeocin. Recombinant yeast are then analyzed for GUS expression/function by replica plating on YPD agar plates containing 100 µg/ml zeocin plus 1 mg/ml X-glu (5-bromo-4-chloro-3-indoyl-beta-D-glucuronide sodium salt) and grown at 30°C for 16 hours. […] None of the yeast containing the GUS-OF turned blue in the presence of the X-glu substrate under normal growth conditions.
After incubation, yeast were plated on YPD-ZEO-X-GLU plates and grown at 30°C for 16 hours.

H36pCAR-OF cell line = assay: H36pCAR-OF screening assay (MMR-sensitive β-galactosidase reporter); type: cell-based, murine
MMR defective cell lines = conditions: cited from earlier work
[9] = concentration 0.5 (mM), 10 days
[10] = concentration 1.0 (mM), 10 days
[11] = concentration 2.5 (mM), 10 days
[12] = concentration 5.0 (mM), 10 days
[13] = concentration 12.5 (mM), 10 days
[14] = Arabidopsis thaliana, in vivo, 10 days, 0.1 mM
[15] = Arabidopsis thaliana, in vivo, 10 days, 0.5 mM
[16] = Arabidopsis thaliana, in vivo, 10 days, 1 mM
[17] = Arabidopsis thaliana, in vivo, 10 days, 2.5 mM
[18] = Arabidopsis thaliana, in vivo, 10 days, 5 mM
[19] = Arabidopsis thaliana, in vivo, 10 days, 10 mM
[20] = Arabidopsis thaliana, in vivo, 10 days, 12.5 mM
[21] = Arabidopsis thaliana, in vivo, 10 days, 25 mM
[22] = Arabidopsis thaliana, in vivo, 10 days, 50 mM

Structure (SMILES): Cc1c2ccccc2c(C)c2c1ccc1ccccc12 [7,12-dimethylbenz[a]anthracene]
- effect on MMR activity [1]: MMR activity might have been blocked

Structure (SMILES): Nc1ncnc2c1ncn2[C@@H]1O[C@H](COP(=O)(O)OP(=O)(O)NP(=O)(O)O)[C@@H](O)[C@H]1O [AMP-PNP]
- effect on MMR activity (MMR activity): block the MMR activity

Structure (SMILES): Nc1ncnc2c1ncn2[C@@H]1O[C@H](COP(=O)(O)OP(=O)(O)OP(O)(O)=S)[C@@H](O)[C@H]1O [ATP[gamma]S]
- effect on MMR activity (MMR activity): block the MMR activity

Structure (SMILES): Cc1c2ccccc2c(C)c2ccccc12 [DMA, 9,10-dimethylanthracene]
- mutagenicity [2]: acts as a potent weak mutagen
- toxicity (human HEK293 cells [3]): non-toxic
- phenotypically distinct plants (Arabidopsis thaliana [4]; offspring at day 10 of plants grown from seeds plated in 2mM DMA): 7 out of 118
- BAT26 alleles (microsatellite instability) (human HEK293 cells [5]; 14 to 17 days, PCR and 12% PAGE): showed the presence of an altered allele
- BAT26 polyA repeat length by sequence analysis (human HEK293 cells [5]; five clones sequenced, control homozygous 26nt polyA): multiple alleles ranging from the wild-type with 26 polyA repeat to shorter alleles (24 polyA repeat) and larger alleles (28 polyA repeat)
- Dead (Arabidopsis thaliana [6]; concentration 0.1 (mM), 10 days, non-germinated seeds scored dead): 0 per 100 seeds
- Inter (Arabidopsis thaliana [6]; concentration 0.1 (mM), 10 days, stunted root or shoot formation scored intermediate): 0 per 100 seeds
- Healthy (Arabidopsis thaliana [6]; concentration 0.1 (no unit in head; mM), MS phytagar, 10 days, identical to untreated seeds): 94 per 100 seeds
- Dead (Arabidopsis thaliana [6]; [9]): 0 per 100 seeds
- Inter (Arabidopsis thaliana [6]; [9]): 0 per 100 seeds
- Healthy (Arabidopsis thaliana [6]; concentration 0.5 (mM), MS phytagar, 10 days): 99 per 100 seeds
- Dead (Arabidopsis thaliana [6]; [10]): 0 per 100 seeds
- Inter (Arabidopsis thaliana [6]; [10]): 0 per 100 seeds
- Healthy (Arabidopsis thaliana [6]; concentration 1.0 (mM), MS phytagar, 10 days): 99 per 100 seeds
- Dead (Arabidopsis thaliana [6]; [11]): 0 per 100 seeds
- Inter (Arabidopsis thaliana [6]; [11]): 20 per 100 seeds
- Healthy (Arabidopsis thaliana [6]; concentration 2.5 (mM), MS phytagar, 10 days): 80 per 100 seeds
- Dead (Arabidopsis thaliana [6]; [12]): 0 per 100 seeds
- Inter (Arabidopsis thaliana [6]; [12]): 15 per 100 seeds
- Healthy (Arabidopsis thaliana [6]; concentration 5.0 (mM), MS phytagar, 10 days): 85 per 100 seeds
- Dead (Arabidopsis thaliana [6]; concentration 10 (mM), 10 days): 0 per 100 seeds
- Inter (Arabidopsis thaliana [6]; concentration 10 (mM), 10 days): 32 per 100 seeds
- Healthy (Arabidopsis thaliana [6]; concentration 10 (mM), MS phytagar, 10 days): 65 per 100 seeds
- Dead (Arabidopsis thaliana [6]; [13]): 0 per 100 seeds
- Inter (Arabidopsis thaliana [6]; [13]): 85 per 100 seeds
- Healthy (Arabidopsis thaliana [6]; concentration 12.5 (mM), MS phytagar, 10 days): 0 per 100 seeds
- Dead (Arabidopsis thaliana [6]; concentration 25 (mM), 10 days): 0 per 100 seeds
- Inter (Arabidopsis thaliana [6]; concentration 25 (mM), 10 days): 100 per 100 seeds
- Healthy (Arabidopsis thaliana [6]; concentration 25 (mM), MS phytagar, 10 days): 0 per 100 seeds
- Dead (Arabidopsis thaliana [6]; concentration 50 (mM), 10 days): 100 per 100 seeds
- Inter (Arabidopsis thaliana [6]; concentration 50 (mM), 10 days): 0 per 100 seeds
- Healthy (Arabidopsis thaliana [6]; concentration 50 (mM), MS phytagar, 10 days): 0 per 100 seeds
- concentration at which toxicity occurs (Arabidopsis thaliana [6]; continuous culture, Arabidopsis seeds): 10 mM
- metabolites formed [7]: converted to 9-Hydroxymethyl-10-methylanthracene (9-OHMeMA) and 9,10-dihydroxymethyl-anthracene (9,10-DiOHMeA)
- blue subclones (GUS activity) on YPD-ZEO-X-GLU plates [8]: a subset of yeast expressing GUS-OF contain blue subclones
- MI and/or shifting of the polynucleotide tract in the pCAR-OF reporter (β-galactosidase positive cells) (H36pCAR-OF cell line): shifting the pCAR-OF reporter plasmid

Structure (SMILES): CCOS(C)(=O)=O [EMS, ethyl methanesulfonate]
- phenotypically distinct plants (Arabidopsis thaliana [4]; 150 offspring at day 10 of plants grown from seeds plated in 250 µM EMS): no phenotypic difference was observed
- concentration at which toxicity occurs (Arabidopsis thaliana [6]; Arabidopsis thaliana, in vivo, 10 days): 250 µm
- Healthy (Arabidopsis thaliana [6]; [14]): 100 per 100 cells
- Inter (Arabidopsis thaliana [6]; [14]): 0 per 100 cells
- Healthy (Arabidopsis thaliana [6]; [15]): 45 per 100 cells
- Inter (Arabidopsis thaliana [6]; [15]): 54 per 100 cells
- Healthy (Arabidopsis thaliana [6]; [16]): 25 per 100 cells
- Inter (Arabidopsis thaliana [6]; [16]): 75 per 100 cells
- Healthy (Arabidopsis thaliana [6]; [17]): 0 per 100 cells
- Inter (Arabidopsis thaliana [6]; [17]): 0 per 100 cells
- Healthy (Arabidopsis thaliana [6]; [18]): 0 per 100 cells
- Inter (Arabidopsis thaliana [6]; [18]): 0 per 100 cells
- Healthy (Arabidopsis thaliana [6]; [19]): 0 per 100 cells
- Inter (Arabidopsis thaliana [6]; [19]): 0 per 100 cells
- Healthy (Arabidopsis thaliana [6]; [20]): 0 per 100 cells
- Inter (Arabidopsis thaliana [6]; [20]): 0 per 100 cells
- Healthy (Arabidopsis thaliana [6]; [21]): 0 per 100 cells
- Inter (Arabidopsis thaliana [6]; [21]): 0 per 100 cells
- Healthy (Arabidopsis thaliana [6]; [22]): 0 per 100 cells
- Inter (Arabidopsis thaliana [6]; [22]): 0 per 100 cells
- blue subclones (GUS activity) on YPD-ZEO-X-GLU plates [8]: none are seen
- MI and/or shifting of the polynucleotide tract in the pCAR-OF reporter (β-galactosidase positive cells) (H36pCAR-OF cell line): did not result in MI

Structure (SMILES): COc1ccc2nc3cc(Cl)ccc3c(NCCCNCCCl)c2c1 [ICR191]
- mutation rates in MMR defective cell lines (MMR defective cell lines): produce enhanced mutation rates in already MMR defective cell lines

Structure (SMILES): c1ccc2c(c1)cc1ccc3cccc4ccc2c1c34 [benzo [a]pyrene]
- effect on MMR activity [1]: MMR activity might have been blocked
